Numbers after ± are expanded uncertainties.
Tests used:
[1] = excess molar enthalpy (molar enthalpy of mixing); xn = mol fraction of the nth substance listed; conditions: 308.15 K, 101 kPa, Liquid, two-drop calorimeter
[2] = xn = mol fraction of the nth substance listed; conditions: 101 kPa, Liquid; for speed of sound: Sing-around technique in a fixed-path interferometer; for mass density: Vibrating tube method

Cc1ccccc1N [2-methylaniline] + c1ccncc1
[1]
Conditions	excess molar enthalpy [kcal/mol]
x1 = 0.0397	-0.052 ± 0.00239
x1 = 0.0728	-0.0894 ± 0.00382
x1 = 0.1263	-0.137 ± 0.00574
x1 = 0.1742	-0.171 ± 0.00693
x1 = 0.2163	-0.192 ± 0.00789
x1 = 0.2681	-0.213 ± 0.0086
x1 = 0.3192	-0.23 ± 0.00932
x1 = 0.3707	-0.24 ± 0.0098
x1 = 0.4212	-0.245 ± 0.01
x1 = 0.4826	-0.247 ± 0.01
x1 = 0.5261	-0.245 ± 0.01
x1 = 0.5815	-0.241 ± 0.0098
x1 = 0.6327	-0.23 ± 0.00932
x1 = 0.7026	-0.213 ± 0.0086
x1 = 0.7735	-0.187 ± 0.00765
x1 = 0.8177	-0.165 ± 0.00669
x1 = 0.8802	-0.123 ± 0.00502
x1 = 0.9723	-0.0346 ± 0.00174

[2]
Conditions	mass density, 298.15 K [kg/m3]	mass density, 303.15 K [kg/m3]	mass density, 308.15 K [kg/m3]	speed of sound, 298.15 K [m/s]	speed of sound, 303.15 K [m/s]	speed of sound, 308.15 K [m/s]
x1 = 0.0652	980.854 ± 0.24	975.904 ± 0.24	970.897 ± 0.24	1431.7 ± 2.3	1411.5 ± 2.3	1391.8 ± 2.3
x1 = 0.1138	982.607 ± 0.24	977.714 ± 0.24	972.767 ± 0.24	1442.1 ± 2.3	1421.8 ± 2.3	1402.4 ± 2.3
x1 = 0.1277	–	978.889 ± 0.25	–	–	–	–
x1 = 0.1477	983.731 ± 0.24	–	973.991 ± 0.24	1449.2 ± 2.3	1429 ± 2.3	1409.8 ± 2.3
x1 = 0.1853	984.895 ± 0.24	980.111 ± 0.24	975.253 ± 0.24	1457 ± 2.4	1436.9 ± 2.3	1417.8 ± 2.3
x1 = 0.2374	986.375 ± 0.24	981.65 ± 0.24	976.858 ± 0.24	1467.7 ± 2.4	1447.7 ± 2.3	1428.6 ± 2.3
x1 = 0.2686	987.172 ± 0.24	982.485 ± 0.24	977.748 ± 0.24	1474 ± 2.4	1454 ± 2.3	1435 ± 2.3
x1 = 0.3005	987.937 ± 0.23	983.289 ± 0.24	978.587 ± 0.24	1480.3 ± 2.4	1460.4 ± 2.3	1441.4 ± 2.3
x1 = 0.3526	989.058 ± 0.23	984.461 ± 0.23	979.835 ± 0.23	1490.5 ± 2.4	1470.6 ± 2.3	1451.7 ± 2.3
x1 = 0.4104	990.119 ± 0.23	985.592 ± 0.23	981.051 ± 0.23	1501.4 ± 2.4	1481.7 ± 2.4	1462.7 ± 2.3
x1 = 0.4837	991.237 ± 0.23	986.789 ± 0.23	982.322 ± 0.23	1514.8 ± 2.4	1495.3 ± 2.4	1476.3 ± 2.3
x1 = 0.5238	991.751 ± 0.23	987.335 ± 0.23	982.917 ± 0.23	1522 ± 2.4	1502.6 ± 2.4	1483.6 ± 2.3
x1 = 0.5641	992.187 ± 0.23	987.803 ± 0.23	983.434 ± 0.23	1529.1 ± 2.4	1509.6 ± 2.4	1490.6 ± 2.4
x1 = 0.6231	992.73 ± 0.23	988.386 ± 0.23	984.067 ± 0.23	1539.3 ± 2.4	1519.7 ± 2.4	1500.7 ± 2.4
x1 = 0.6974	993.253 ± 0.23	988.955 ± 0.23	984.698 ± 0.23	1551.7 ± 2.4	1531.8 ± 2.4	1513.1 ± 2.4
x1 = 0.7678	993.622 ± 0.23	989.362 ± 0.23	985.142 ± 0.23	1563.4 ± 2.4	1542.9 ± 2.4	1524.3 ± 2.4
x1 = 0.8236	993.838 ± 0.23	989.613 ± 0.23	985.416 ± 0.23	1572.5 ± 2.4	1551.6 ± 2.4	1532.9 ± 2.4
x1 = 0.8622	993.969 ± 0.23	989.756 ± 0.23	985.573 ± 0.23	1578.9 ± 2.4	1557.4 ± 2.4	1538.6 ± 2.4
x1 = 0.9621	994.245 ± 0.23	990.097 ± 0.23	985.933 ± 0.23	1595.9 ± 2.4	1572.2 ± 2.4	1553.2 ± 2.4

Cc1ccccn1 [2-methylpyridine] + Cc1ccccc1N
[1]
Conditions	excess molar enthalpy [kcal/mol]
x2 = 0.0496	-0.0681 ± 0.00311
x2 = 0.0772	-0.103 ± 0.0043
x2 = 0.1356	-0.173 ± 0.00717
x2 = 0.1802	-0.22 ± 0.00908
x2 = 0.2234	-0.26 ± 0.0105
x2 = 0.2736	-0.298 ± 0.0122
x2 = 0.3294	-0.327 ± 0.0134
x2 = 0.3813	-0.347 ± 0.0141
x2 = 0.4326	-0.361 ± 0.0146
x2 = 0.4882	-0.358 ± 0.0146
x2 = 0.5321	-0.351 ± 0.0143
x2 = 0.5735	-0.342 ± 0.0139
x2 = 0.6423	-0.307 ± 0.0124
x2 = 0.7152	-0.259 ± 0.0105
x2 = 0.7821	-0.207 ± 0.00837
x2 = 0.8293	-0.163 ± 0.00669
x2 = 0.8916	-0.104 ± 0.0043
x2 = 0.9676	-0.0298 ± 0.0016

[2]
Conditions	mass density, 298.15 K [kg/m3]	mass density, 303.15 K [kg/m3]	mass density, 308.15 K [kg/m3]	speed of sound, 298.15 K [m/s]	speed of sound, 303.15 K [m/s]	speed of sound, 308.15 K [m/s]
x2 = 0.0588	944.871 ± 0.74	940.204 ± 0.73	935.521 ± 0.73	1395.6 ± 2.9	1376.2 ± 2.9	1355.7 ± 2.9
x2 = 0.1226	950.051 ± 0.7	945.414 ± 0.69	940.771 ± 0.69	1412 ± 2.8	1392.5 ± 2.8	1372.3 ± 2.8
x2 = 0.1427	951.609 ± 0.68	946.996 ± 0.68	942.357 ± 0.68	1417.3 ± 2.8	1397.5 ± 2.8	1377.4 ± 2.8
x2 = 0.1759	954.117 ± 0.66	949.518 ± 0.66	944.908 ± 0.66	1425.8 ± 2.8	1405.8 ± 2.8	1385.8 ± 2.8
x2 = 0.2258	957.721 ± 0.63	953.161 ± 0.63	948.573 ± 0.62	1438.3 ± 2.8	1418.1 ± 2.8	1398.3 ± 2.8
x2 = 0.2557	959.793 ± 0.61	955.24 ± 0.61	950.677 ± 0.61	1445.7 ± 2.8	1425.4 ± 2.8	1405.6 ± 2.7
x2 = 0.3113	963.447 ± 0.58	958.931 ± 0.58	954.409 ± 0.57	1459.5 ± 2.7	1438.7 ± 2.7	1418.7 ± 2.7
x2 = 0.3629	966.623 ± 0.55	962.158 ± 0.55	957.666 ± 0.54	1471.8 ± 2.7	1450.8 ± 2.7	1430.8 ± 2.7
x2 = 0.4213	969.995 ± 0.52	965.568 ± 0.51	961.112 ± 0.51	1485.4 ± 2.6	1464 ± 2.6	1443.9 ± 2.6
x2 = 0.4743	972.843 ± 0.49	968.45 ± 0.48	964.025 ± 0.48	1497.5 ± 2.6	1475.7 ± 2.6	1455.4 ± 2.6
x2 = 0.5146	974.899 ± 0.46	970.527 ± 0.46	966.122 ± 0.46	1506.3 ± 2.6	1484.4 ± 2.6	1464 ± 2.6
x2 = 0.5732	977.707 ± 0.43	973.382 ± 0.43	968.998 ± 0.43	1519.1 ± 2.6	1496.8 ± 2.6	1476.2 ± 2.6
x2 = 0.6182	979.733 ± 0.41	975.431 ± 0.41	971.079 ± 0.41	1528.4 ± 2.5	1505.9 ± 2.5	1485.5 ± 2.5
x2 = 0.6862	982.621 ± 0.37	978.364 ± 0.37	974.033 ± 0.37	1542.2 ± 2.5	1519.4 ± 2.5	1498.8 ± 2.5
x2 = 0.7571	985.441 ± 0.34	981.219 ± 0.34	976.909 ± 0.34	1556.3 ± 2.5	1532.9 ± 2.5	1508 ± 2.5
x2 = 0.8344	988.355 ± 0.3	984.158 ± 0.3	979.889 ± 0.3	1571.1 ± 2.4	1547.4 ± 2.4	1522.5 ± 2.4
x2 = 0.8737	989.787 ± 0.28	985.611 ± 0.28	981.361 ± 0.28	1578.5 ± 2.4	1554.6 ± 2.4	1538.1 ± 2.4
x2 = 0.9527	992.636 ± 0.25	988.492 ± 0.25	984.295 ± 0.25	1593.5 ± 2.4	1569.1 ± 2.4	1555.1 ± 2.4

Reference: the NIST ThermoML archive (doi:10.1016/j.jct.2010.12.028)
